{"source": "ChEMBL document CHEMBL3112480", "about": "“γ-Alkylidene-γ-lactones and isobutylpyrrol-2(5H)-ones analogues to rubrolides as inhibitors of biofilm formation by gram-positive and gram-negative bacteria” (Bioorg Med Chem Lett, 2014)", "test_system": "Streptococcus mutans", "experiment": "Antibacterial activity against Streptococcus mutans OMZ175 assessed as inhibition of biofilm formation at 6 uM relative to control", "format": "functional", "data": [{"smiles": "O=C1C=C/C(=C/Br)O1", "values": [{"measurement": "inhibition at 6 µM", "value": 26, "unit": "%"}]}]}
